From patent EP4489718B1, “METHOD FOR ENCAPSULATING A HYDROPHOBIC COMPOUND, SUSPENSION OF STRUCTURED LIPID PARTICLES ACCORDING TO THIS METHOD, AND USES OF SAID SUSPENSION” (SEDERMA, priority 2022, dated 2023)
Read-outs that look alike come from different tables or passages of the source.

Legend:
[1] = Stability study on storage (retinol content by HPLC, colour, pH, particle size); type: physicochemical
Protocol: Samples were diluted in isopropanol. […] A calibration curve was performed. For an accelerated stability study, suspension samples according to the invention were stored for 365 days at room temperature (RT), 180 days at 40°C, 90 days at 5°C and 60 days at 50°C. The long-term stability study was evaluated at RT. Samples were analysed for characterization parameters at test times 0, 7, 14, 21, 30, 60, and 90, 180 and 365 days, depending on each storage condition. At each analysis time, a new bottle was opened for the first time. To assess the impact of product handling during stability, an additional bottle of each sample was stored at RT. This same bottle was opened and handled under an air atmosphere at each analysis time (7, 14, 21, 30, 60 and 90 days for all samples for RT) and the results were compared to the cases of the bottles newly opened for each analysis. All samples were handled without direct contact with light and under normal air conditions. No inert gas was used either to fill the bottles or to handle any sample.

[2] = type: physicochemical
Protocol: Aim: to study whether the encapsulated retinol according to the invention supported UV irradiation and to compare with the non-encapsulated free retinol (solubilized in soybean oil).
Protocol: two samples, one containing free retinol and the other encapsulated retinol, were irradiated for 1 hour at about 40cm from the bulb of the solar lamp.
Retinol assay: by HPLC (UV detection at 325nm), the samples having been solubilized and diluted in isopropyl alcohol and the quantification having been carried out using a standard curve ranging from 2 to 150 ppm of retinol.

physchem = type: physicochemical
Text: The Franz diffusion cell is the device most used to examine the release profiles of an active ingredient encapsulated in the capsules according to the invention. […] The product to be tested is placed in the upper chamber while the lower chamber collects the recipient fluid which has passed through the membrane. The rate and mechanism of release can be obtained by mathematical modelling. The rate can be calculated using the following first-order equation: […] And the release mechanism can be obtained using the Korsmeyer-Peppas model equation: Mt/M∞ = […] [formula] In which: • t is the release time • Mt is the quantity of released active at t time • M∞ is the total quantity of released active • Mt/M∞ being the fraction of released active at t time; • k is a kinetic constant, a measure of the release rate; and • n the diffusional exponent which gives an indication of the release mechanism of the active and takes on different values depending on the geometry of the release device. […] Selected membrane: […] Eight Franz cells containing the release medium and the membrane were prepared and placed in a temperature-controlled water bath of 32°C. […] The amount added to the membrane was 20% of the saturation concentration to ensure flow conditions. Samples were taken at selected intervals of 0.5 to 76 h with replacement of fresh medium. All samples collected were analysed for retinol content by HPLC on the day of the experiment. […] The mean of the four cells in both cases was plotted against time and used to apply the mathematical models. […] The release mechanism was obtained by the Korsmeyer-Peppas equation.

## CC1=C(/C=C/C(C)=C/C=C/C(C)=C/CO)C(C)(C)CCC1 [Free retinol, retinol]
[1]; storage 5°C, 0 days, suspension: new bottle for each test
  Retinol content in w/w %: 3.11 w/w %
[1]; storage 5°C, 7 days, suspension: new bottle for each test
  Retinol content in w/w %: 3.14 w/w %
[1]; storage 5°C, 14 days
  Retinol content in w/w %: 2.77 w/w %
[1]; storage 5°C, 21 days
  Retinol content in w/w %: 0.42 w/w %
[1]; storage 5°C, 30 days, suspension: new bottle for each test
  Retinol content in w/w %: 0.0 w/w %
[1]; storage 40°C, 0 days, suspension: new bottle for each test
  Retinol content in w/w %: 3.11 w/w %
[1]; storage 40°C, 7 days, suspension: new bottle for each test
  Retinol content in w/w %: 2.79 w/w %
[1]; storage 40°C, 14 days
  Retinol content in w/w %: 0.89 w/w %
[1]; storage 40°C, 21 days
  Retinol content in w/w %: 0.0 w/w %
[1]; storage 40°C, 30 days, suspension: new bottle for each test
  Retinol content in w/w %: 0.0 w/w %
[1]; storage 50°C, 0 days, suspension: new bottle for each test
  Retinol content in w/w %: 3.11 w/w %
[1]; storage 50°C, 7 days, suspension: new bottle for each test
  Retinol content in w/w %: 2.51 w/w %
[1]; storage 50°C, 14 days, suspension: new bottle for each test
  Retinol content in w/w %: 0.10 w/w %
[1]; storage 50°C, 21 days, suspension: new bottle for each test
  Retinol content in w/w %: 0.0 w/w %
[1]; storage 50°C, 30 days, suspension: new bottle for each test
  Retinol content in w/w %: 0.0 w/w %
[1]; storage RT, 0 days, suspension: new bottle for each test
  Retinol content in w/w %: 3.11 w/w %
[1]; storage RT, 7 days, suspension: new bottle for each test
  Retinol content in w/w %: 2.76 w/w %
[1]; storage RT, 14 days, suspension: new bottle for each test
  Retinol content in w/w %: 2.40 w/w %
[1]; storage RT, 21 days, suspension: new bottle for each test
  Retinol content in w/w %: 0.23 w/w %
[1]; storage RT, 30 days, suspension: new bottle for each test
  Retinol content in w/w %: 0.25 w/w %
[2]; After 1h of irradiation, about 40cm from solar lamp
  Actual content of retinol (in weight %): 5.72 +/- 0.07 weight %
[2]; Control (not irradiated)
  Actual content of retinol (in weight %): 10.49 +/- 0.34 weight %
physchem
  retinol degradation peaks in the chromatograms of the release samples: degradation peaks from 10h
physchem; 3% tween 80 in water
  half-life: 122 min
physchem; Franz cell, PVDF 0.1 µm membrane, 3% Tween 80 / 97% water, 32°C, first-order model
  release rate: 0.00089 min⁻¹
